Test results: ChEMBL document CHEMBL4354805, “Discovery of MK-8719, a Potent O-GlcNAcase Inhibitor as a Potential Treatment for Tauopathies” (J Med Chem, 2019)
pEC50, pIC50, pKi: −log10 of the molar value.

Tests used:
MDR1 = test: Apparent permeability in pig LLC-PK1 cells transfected with MDR1; type: ADME, cell-based, Sus scrofa
[1] = molecular target: T1, Beta-hexosaminidase subunit beta (Homo sapiens, UniProt P07686); test: Inhibition of human beta hexosaminidase assessed as inhibitory constant using 4-methylumbelliferyl N-acetyl-beta-D-glucosaminide dihydrate as substrate measured every 60 sec for 45 mins by fluorescence spectrophotometry
T1 sequence (P07686 whole entry): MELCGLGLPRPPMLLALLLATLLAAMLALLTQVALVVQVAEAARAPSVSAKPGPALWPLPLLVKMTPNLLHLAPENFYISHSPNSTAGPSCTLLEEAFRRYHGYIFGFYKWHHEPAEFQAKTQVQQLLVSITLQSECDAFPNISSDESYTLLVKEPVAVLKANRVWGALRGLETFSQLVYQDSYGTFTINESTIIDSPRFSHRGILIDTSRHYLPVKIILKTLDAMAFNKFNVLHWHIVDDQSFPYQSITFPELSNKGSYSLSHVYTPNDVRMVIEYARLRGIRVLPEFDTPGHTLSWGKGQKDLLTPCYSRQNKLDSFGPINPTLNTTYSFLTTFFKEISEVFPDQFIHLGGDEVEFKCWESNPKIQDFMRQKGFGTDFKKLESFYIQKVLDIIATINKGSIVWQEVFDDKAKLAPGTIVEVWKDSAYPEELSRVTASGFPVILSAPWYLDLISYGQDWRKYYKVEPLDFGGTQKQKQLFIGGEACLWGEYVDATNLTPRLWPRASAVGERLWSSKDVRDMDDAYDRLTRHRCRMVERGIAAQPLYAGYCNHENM

[2] = AUCN in Wistar Han rat at 3 mg/kg, po; type: ADME, organism-based; details: in vivo
[3] = Half life in Wistar Han rat at 2 mg/kg, iv; type: ADME, organism-based; details: in vivo
[4] = Oral bioavailability in Wistar Han rat at 3 mg/kg; type: ADME, organism-based; details: in vivo
[5] = Clearance in Wistar Han rat at 2 mg/kg, iv; type: ADME, organism-based; details: in vivo
[6] = Volume of distribution at steady state in Wistar Han rat at 2 mg/kg, iv or 3 mg/kg, po; type: ADME, organism-based; details: in vivo, read-out: Vdss
Protein O-GlcNAcase [7] = molecular target: T2, Protein O-GlcNAcase (Homo sapiens, UniProt O60502); test: Inhibition of recombinant human OGA
T2 sequence (O60502 whole entry): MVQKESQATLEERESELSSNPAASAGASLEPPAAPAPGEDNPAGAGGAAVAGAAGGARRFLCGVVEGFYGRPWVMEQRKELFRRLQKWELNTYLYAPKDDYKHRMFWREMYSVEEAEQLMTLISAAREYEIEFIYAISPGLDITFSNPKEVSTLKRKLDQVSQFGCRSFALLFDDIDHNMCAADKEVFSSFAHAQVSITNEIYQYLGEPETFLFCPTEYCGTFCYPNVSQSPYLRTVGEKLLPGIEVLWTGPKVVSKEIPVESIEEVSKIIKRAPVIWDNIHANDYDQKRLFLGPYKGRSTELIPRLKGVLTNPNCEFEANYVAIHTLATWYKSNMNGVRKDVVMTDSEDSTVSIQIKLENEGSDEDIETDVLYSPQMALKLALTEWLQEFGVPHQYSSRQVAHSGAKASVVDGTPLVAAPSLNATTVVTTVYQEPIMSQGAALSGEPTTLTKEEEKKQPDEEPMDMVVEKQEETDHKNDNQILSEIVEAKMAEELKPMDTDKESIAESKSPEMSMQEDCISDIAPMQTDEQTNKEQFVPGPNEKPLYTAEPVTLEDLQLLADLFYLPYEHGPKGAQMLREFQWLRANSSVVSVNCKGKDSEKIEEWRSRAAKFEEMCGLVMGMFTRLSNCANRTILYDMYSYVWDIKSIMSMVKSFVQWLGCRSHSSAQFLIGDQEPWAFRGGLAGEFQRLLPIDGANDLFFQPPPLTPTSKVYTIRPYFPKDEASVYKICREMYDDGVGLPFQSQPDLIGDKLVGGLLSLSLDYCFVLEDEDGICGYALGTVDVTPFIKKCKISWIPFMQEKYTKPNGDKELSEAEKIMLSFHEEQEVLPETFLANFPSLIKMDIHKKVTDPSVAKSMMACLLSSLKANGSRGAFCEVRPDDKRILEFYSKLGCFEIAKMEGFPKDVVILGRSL

Protein O-GlcNAcase [8] = molecular target: T3, Protein O-GlcNAcase (Rattus norvegicus, UniProt Q8VIJ5); test: Inhibition of OGA in rat PC12 cells assessed as OGlcNAcylated protein level incubated for 24 hrs by ELISA; type: cell-based
T3 sequence (Q8VIJ5 whole entry): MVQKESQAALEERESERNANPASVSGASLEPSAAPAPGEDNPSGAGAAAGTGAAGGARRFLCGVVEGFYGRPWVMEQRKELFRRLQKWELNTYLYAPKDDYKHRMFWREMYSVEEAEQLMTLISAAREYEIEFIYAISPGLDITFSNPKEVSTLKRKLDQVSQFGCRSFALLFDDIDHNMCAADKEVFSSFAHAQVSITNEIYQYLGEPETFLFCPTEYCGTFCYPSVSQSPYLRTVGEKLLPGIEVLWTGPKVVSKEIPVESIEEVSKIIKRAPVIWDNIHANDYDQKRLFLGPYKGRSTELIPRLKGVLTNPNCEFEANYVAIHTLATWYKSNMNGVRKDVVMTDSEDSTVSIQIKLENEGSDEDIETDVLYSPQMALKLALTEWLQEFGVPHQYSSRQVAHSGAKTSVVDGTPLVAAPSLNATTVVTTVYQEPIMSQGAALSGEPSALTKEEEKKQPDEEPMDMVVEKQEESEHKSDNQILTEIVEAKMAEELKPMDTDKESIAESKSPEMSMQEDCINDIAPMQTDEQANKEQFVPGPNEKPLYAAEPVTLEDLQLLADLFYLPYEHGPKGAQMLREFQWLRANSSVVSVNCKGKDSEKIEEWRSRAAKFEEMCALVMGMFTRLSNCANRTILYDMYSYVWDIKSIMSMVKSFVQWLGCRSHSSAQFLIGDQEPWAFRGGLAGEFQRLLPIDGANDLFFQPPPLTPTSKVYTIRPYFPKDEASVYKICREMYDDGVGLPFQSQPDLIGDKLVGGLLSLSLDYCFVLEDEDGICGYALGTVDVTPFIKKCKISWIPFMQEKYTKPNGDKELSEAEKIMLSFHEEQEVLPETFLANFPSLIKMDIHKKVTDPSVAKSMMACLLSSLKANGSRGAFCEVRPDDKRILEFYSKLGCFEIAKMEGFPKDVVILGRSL

[9] = molecular target: Voltage-gated inwardly rectifying potassium channel KCNH2 (Homo sapiens, UniProt Q12809); test: Displacement of MK-0499 from human ERG
Sequence of Voltage-gated inwardly rectifying potassium channel KCNH2 (Q12809 whole entry): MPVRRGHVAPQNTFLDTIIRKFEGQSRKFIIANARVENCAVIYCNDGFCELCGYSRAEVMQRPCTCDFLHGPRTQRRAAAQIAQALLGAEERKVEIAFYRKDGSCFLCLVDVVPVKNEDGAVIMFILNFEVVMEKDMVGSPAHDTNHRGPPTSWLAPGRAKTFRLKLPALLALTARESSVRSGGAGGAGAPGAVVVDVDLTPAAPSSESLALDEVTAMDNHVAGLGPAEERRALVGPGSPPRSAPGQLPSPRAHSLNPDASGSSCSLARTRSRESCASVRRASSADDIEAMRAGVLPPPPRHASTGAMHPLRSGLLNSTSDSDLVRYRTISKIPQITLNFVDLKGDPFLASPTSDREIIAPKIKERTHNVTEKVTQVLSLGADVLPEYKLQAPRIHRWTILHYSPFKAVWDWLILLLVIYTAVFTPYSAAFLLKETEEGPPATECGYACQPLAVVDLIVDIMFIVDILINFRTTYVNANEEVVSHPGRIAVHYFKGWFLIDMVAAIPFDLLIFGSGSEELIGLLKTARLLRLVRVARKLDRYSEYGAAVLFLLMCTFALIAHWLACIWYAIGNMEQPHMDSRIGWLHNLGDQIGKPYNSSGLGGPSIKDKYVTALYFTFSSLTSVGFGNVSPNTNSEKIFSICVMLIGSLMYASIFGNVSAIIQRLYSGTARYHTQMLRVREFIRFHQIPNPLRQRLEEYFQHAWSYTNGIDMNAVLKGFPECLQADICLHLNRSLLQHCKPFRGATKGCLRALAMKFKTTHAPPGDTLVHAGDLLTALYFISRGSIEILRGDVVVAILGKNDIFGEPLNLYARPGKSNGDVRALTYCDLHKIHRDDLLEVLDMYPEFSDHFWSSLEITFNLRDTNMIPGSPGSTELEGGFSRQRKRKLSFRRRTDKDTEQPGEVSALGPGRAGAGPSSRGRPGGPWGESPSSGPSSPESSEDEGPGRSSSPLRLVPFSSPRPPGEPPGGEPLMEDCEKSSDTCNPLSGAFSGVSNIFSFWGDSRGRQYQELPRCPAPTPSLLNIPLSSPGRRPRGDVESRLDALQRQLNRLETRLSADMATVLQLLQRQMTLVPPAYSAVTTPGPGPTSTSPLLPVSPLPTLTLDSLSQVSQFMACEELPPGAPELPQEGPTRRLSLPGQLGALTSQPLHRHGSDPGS

[10] = molecular target: T4, Nuclear receptor subfamily 1 group I member 2 (Homo sapiens, UniProt O75469); test: Activation of PXR (unknown origin) assessed as CYP3A4 induction
T4 sequence (O75469 whole entry): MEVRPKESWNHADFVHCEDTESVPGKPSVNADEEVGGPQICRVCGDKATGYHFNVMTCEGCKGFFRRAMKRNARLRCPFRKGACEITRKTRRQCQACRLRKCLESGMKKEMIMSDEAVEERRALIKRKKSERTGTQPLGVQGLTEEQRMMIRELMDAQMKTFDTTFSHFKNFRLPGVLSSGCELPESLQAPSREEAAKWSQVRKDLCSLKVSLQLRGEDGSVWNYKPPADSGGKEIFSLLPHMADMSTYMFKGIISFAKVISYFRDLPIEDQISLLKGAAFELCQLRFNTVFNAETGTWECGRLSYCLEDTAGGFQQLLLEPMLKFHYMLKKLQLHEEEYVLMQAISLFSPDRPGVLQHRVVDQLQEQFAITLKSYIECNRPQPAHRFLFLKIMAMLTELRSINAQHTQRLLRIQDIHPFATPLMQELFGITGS

Cytochrome P450 2D6 = Cytochrome P450 2D6 (Homo sapiens, UniProt P10635); test: Inhibition of CYP2D6 (unknown origin); type: ADME
Sequence of Cytochrome P450 2D6 (P10635 whole entry): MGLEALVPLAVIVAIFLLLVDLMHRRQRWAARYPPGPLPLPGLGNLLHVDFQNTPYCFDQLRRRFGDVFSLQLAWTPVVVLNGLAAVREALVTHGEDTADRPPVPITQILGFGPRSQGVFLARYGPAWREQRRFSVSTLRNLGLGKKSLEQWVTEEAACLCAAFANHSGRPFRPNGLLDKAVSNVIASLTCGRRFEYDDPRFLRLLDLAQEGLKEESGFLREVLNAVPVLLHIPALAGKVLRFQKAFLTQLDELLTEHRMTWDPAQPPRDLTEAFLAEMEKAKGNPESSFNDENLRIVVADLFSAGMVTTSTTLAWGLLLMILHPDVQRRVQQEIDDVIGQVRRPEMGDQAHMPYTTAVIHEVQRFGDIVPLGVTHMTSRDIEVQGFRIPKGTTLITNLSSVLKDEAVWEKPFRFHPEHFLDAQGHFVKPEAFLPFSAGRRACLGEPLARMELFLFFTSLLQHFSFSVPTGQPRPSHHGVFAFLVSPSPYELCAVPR

[11] = molecular target: Voltage-dependent L-type calcium channel subunit alpha-1C (Homo sapiens, UniProt Q13936); test: Inhibition of Cav1.2 (unknown origin)
[12] = molecular target: Sodium channel protein type 5 subunit alpha (Homo sapiens, UniProt Q14524); test: Inhibition of Nav1.5 (unknown origin)
Sequence of Sodium channel protein type 5 subunit alpha (Q14524 whole entry): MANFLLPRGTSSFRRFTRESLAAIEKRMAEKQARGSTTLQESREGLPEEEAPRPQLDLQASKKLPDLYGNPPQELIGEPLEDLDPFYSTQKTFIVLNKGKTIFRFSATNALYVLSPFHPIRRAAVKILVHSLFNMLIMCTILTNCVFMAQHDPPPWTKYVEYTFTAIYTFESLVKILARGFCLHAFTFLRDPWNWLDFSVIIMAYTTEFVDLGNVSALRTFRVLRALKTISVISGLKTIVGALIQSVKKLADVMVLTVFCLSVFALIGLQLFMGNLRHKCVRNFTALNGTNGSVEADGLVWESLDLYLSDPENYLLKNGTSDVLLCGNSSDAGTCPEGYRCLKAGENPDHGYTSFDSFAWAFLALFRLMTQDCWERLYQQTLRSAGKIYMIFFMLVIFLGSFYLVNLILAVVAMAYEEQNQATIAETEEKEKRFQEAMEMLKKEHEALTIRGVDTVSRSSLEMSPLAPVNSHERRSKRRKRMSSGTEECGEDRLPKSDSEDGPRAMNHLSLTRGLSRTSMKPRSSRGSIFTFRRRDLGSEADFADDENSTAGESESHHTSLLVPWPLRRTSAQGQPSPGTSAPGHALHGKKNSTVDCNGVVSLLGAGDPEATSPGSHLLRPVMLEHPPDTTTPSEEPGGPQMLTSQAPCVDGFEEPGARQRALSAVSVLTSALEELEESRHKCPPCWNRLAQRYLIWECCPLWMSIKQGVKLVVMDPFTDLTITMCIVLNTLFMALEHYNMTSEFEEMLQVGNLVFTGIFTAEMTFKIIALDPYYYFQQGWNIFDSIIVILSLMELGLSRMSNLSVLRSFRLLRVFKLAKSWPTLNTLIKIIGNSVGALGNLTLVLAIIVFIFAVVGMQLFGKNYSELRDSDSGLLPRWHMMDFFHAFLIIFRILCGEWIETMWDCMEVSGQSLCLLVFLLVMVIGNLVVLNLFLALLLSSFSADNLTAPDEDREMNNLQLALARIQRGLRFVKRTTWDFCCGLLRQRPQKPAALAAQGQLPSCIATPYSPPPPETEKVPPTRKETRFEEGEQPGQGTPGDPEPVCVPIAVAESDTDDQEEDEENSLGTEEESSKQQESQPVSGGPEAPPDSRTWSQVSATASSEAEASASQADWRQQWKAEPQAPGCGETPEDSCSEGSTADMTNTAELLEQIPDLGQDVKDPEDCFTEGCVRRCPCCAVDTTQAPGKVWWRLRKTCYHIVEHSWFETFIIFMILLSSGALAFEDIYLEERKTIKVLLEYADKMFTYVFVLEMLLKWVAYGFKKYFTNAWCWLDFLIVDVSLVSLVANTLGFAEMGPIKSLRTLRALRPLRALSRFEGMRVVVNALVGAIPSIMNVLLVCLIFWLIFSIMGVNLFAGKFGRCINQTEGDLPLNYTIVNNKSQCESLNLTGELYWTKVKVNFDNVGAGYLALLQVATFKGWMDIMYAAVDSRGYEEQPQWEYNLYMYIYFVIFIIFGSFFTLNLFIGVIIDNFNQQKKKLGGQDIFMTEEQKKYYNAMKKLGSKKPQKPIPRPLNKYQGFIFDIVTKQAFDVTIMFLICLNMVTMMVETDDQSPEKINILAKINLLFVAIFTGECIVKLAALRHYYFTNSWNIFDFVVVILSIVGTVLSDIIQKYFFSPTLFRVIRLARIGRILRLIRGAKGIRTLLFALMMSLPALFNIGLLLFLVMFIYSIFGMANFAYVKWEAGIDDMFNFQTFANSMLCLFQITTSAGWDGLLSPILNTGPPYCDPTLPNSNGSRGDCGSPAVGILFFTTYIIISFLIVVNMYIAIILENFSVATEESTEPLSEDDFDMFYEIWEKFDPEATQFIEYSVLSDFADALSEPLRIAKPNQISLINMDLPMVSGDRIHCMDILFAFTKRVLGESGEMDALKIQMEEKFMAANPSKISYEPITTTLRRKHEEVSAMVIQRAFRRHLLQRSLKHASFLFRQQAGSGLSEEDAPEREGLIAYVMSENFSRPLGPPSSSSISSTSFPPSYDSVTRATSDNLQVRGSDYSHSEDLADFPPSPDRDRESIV

Cytochrome P450 2C9 = Cytochrome P450 2C9 (Homo sapiens, UniProt P11712); test: Inhibition of CYP2C9 (unknown origin); type: ADME
Sequence of Cytochrome P450 2C9 (P11712 whole entry): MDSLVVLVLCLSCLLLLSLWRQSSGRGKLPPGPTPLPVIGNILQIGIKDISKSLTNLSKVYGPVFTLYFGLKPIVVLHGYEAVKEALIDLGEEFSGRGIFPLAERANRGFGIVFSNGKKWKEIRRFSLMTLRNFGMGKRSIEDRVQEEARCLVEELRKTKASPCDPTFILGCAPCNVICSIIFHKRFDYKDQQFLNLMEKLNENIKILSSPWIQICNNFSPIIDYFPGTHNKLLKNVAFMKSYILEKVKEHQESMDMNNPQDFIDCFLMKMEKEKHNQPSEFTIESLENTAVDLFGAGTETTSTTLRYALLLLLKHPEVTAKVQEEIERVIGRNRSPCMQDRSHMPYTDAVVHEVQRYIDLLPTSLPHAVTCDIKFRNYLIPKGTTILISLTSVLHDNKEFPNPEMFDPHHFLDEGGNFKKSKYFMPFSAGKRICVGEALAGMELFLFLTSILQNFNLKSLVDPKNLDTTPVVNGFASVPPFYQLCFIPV

Cytochrome P450 3A4 = Cytochrome P450 3A4 (Homo sapiens, UniProt P08684); test: Inhibition of CYP3A4 (unknown origin); type: ADME
Sequence of Cytochrome P450 3A4 (P08684 whole entry): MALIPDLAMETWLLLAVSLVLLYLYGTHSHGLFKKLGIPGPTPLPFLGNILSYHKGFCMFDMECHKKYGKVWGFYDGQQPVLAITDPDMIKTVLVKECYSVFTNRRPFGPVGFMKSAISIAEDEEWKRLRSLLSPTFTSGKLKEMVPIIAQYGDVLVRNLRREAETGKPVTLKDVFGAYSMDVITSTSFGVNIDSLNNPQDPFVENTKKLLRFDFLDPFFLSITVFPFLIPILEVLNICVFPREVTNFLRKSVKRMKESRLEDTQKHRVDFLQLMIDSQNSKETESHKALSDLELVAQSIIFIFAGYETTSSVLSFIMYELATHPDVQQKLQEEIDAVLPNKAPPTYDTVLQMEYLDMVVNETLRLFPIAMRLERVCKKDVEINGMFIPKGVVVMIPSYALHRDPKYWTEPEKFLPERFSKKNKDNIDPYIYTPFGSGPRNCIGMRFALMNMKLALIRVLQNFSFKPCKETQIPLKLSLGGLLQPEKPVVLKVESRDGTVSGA

For C=CCN(C)C1=N[C@@H]2[C@@H](O)[C@H](O)[C@@H](CO)O[C@@H]2S1, the Papp (MDR1) was 0.8 ×10⁻⁶ cm/s, the pKi [1] was 5.35 and the AUC/dose [2] was 0.538 µM·kg·h/mg. For the same molecule, the half-life [3] was 4.03 h, the bioavailability [4] was 108% and the clearance [5] was 45.8 mL/min/kg. The Vd [6] was 16.1 L/kg.

For OC[C@H]1O[C@@H]2SC(N3CCCCC3)=N[C@@H]2[C@@H](O)[C@@H]1O, the pKi [1] was < 5.00 and the pKi (Protein O-GlcNAcase [7]) was 5.74.

Molecule CNC1=N[C@@H]2[C@@H](F)[C@H](O)[C@@H](CO)O[C@@H]2S1 has a pEC50 (Protein O-GlcNAcase [8]) of 6.51, a pKi [1] of 5.09 and a pKi (Protein O-GlcNAcase [7]) of 8.52.

For NC1=N[C@@H]2C[C@H](O)[C@@H](CO)O[C@@H]2S1, the pKi [1] was < 5.00 and the pKi (Protein O-GlcNAcase [7]) was < 5.52.

For C=CCNC1=N[C@@H]2[C@@H](O)[C@H](O)[C@@H](C(F)F)O[C@@H]2S1, the Papp (MDR1) was 12 ×10⁻⁶ cm/s, the pKi [1] was < 5.00 and the pKi (Protein O-GlcNAcase [7]) was 7.13.

With CNC1=N[C@@H]2[C@@H](F)[C@H](O)[C@@H](CF)O[C@@H]2S1 the pKi [1] was < 5.00 and the pKi (Protein O-GlcNAcase [7]) was 7.30.

With CCNC1=N[C@@H]2[C@@H](O)[C@H](OC)[C@@H](CO)O[C@@H]2S1 the pIC50 [9] was < 4.52, the pEC50 [10] was < 4.52 and the pIC50 (Cytochrome P450 2D6) was < 4.30. The pIC50 [11] was < 4.52, the pIC50 [12] was < 4.52 and the pIC50 (Cytochrome P450 2C9) was < 4.30. The pKi (Protein O-GlcNAcase [7]) was < 5.52 and the pIC50 (Cytochrome P450 3A4) was < 4.30.

In the case of OC[C@H]1O[C@@H]2SC(N3CC(F)C3)=N[C@@H]2[C@@H](O)[C@@H]1O, the pKi (Protein O-GlcNAcase [7]) was < 5.52.

For CC1CN(C2=N[C@@H]3[C@@H](O)[C@H](O)[C@@H](CO)O[C@@H]3S2)C1, the Papp (MDR1) was 2.4 ×10⁻⁶ cm/s, the pKi [1] was < 5.00 and the pKi (Protein O-GlcNAcase [7]) was 7.14.

In the case of OC[C@H]1O[C@@H]2SC(N3CCCC3)=N[C@@H]2[C@@H](O)[C@@H]1O, the pKi [1] was < 5.00.

For OC[C@H]1O[C@@H]2SC(NCCF)=N[C@@H]2[C@@H](O)[C@@H]1O, the Papp (MDR1) was 2.2 ×10⁻⁶ cm/s, the pEC50 (Protein O-GlcNAcase [8]) was 6.29 and the pKi [1] was < 5.00. It also gave an AUC/dose [2] of 0.903 µM·kg·h/mg, a half-life [3] of 1.29 h and a bioavailability [4] of 48.6%. It also gave a clearance [5] of 33.6 mL/min/kg, a pKi (Protein O-GlcNAcase [7]) of 8.25 and a Vd [6] of 1.33 L/kg.

In the case of O[C@H]1[C@H](O)[C@@H](CF)O[C@@H]2SC(N3CCC3)=N[C@H]12, the pKi [1] was < 5.00 and the pKi (Protein O-GlcNAcase [7]) was 6.70.

In the case of CNC1=N[C@@H]2[C@@H](F)[C@H](O)[C@@H](C(F)F)O[C@@H]2S1, the Papp (MDR1) was 22 ×10⁻⁶ cm/s, the pKi [1] was < 5.00 and the pKi (Protein O-GlcNAcase [7]) was 7.24.

For CCCNC1=N[C@@H]2[C@@H](F)[C@H](O)[C@@H](CO)O[C@@H]2S1, the pEC50 (Protein O-GlcNAcase [8]) was 6.35, the pKi [1] was < 5.00 and the AUC/dose [2] was 0.394 µM·kg·h/mg. It also gave a half-life [3] of 1.69 h, a bioavailability [4] of 30.1% and a clearance [5] of 48.1 mL/min/kg. For the same molecule, the pKi (Protein O-GlcNAcase [7]) was 7.85 and the Vd [6] was 1.92 L/kg.
